SMILES strings stand for the structures. Several values for one entry are separate records, joined by “and”; a condition that tells them apart may be missing. Identical values can stand only once. Inconclusive results and toxic doses are left out.

We go through ten compounds from PubChem BioAssay AID248 (DTP/NCI, 2004).

This test concerns L1210 leukemia ip in BDF1 mice, survival T/C. Put plainly: NCI In Vivo Anticancer Drug Screen. Data for tumor model L1210 Leukemia (intraperitoneal) in B6D2F1 (BDF1) mice. The conditions noted are these: endpoint: mean survival time, higher = longer survival. A digest of the protocol:
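Mice bearing the transplanted tumor received compound or vehicle. Survival of the treated group was divided by that of the vehicle-treated control group to give the ratio.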

Setting [1] is: dose: 20.0 mg/kg/injection, schedule: Q01DX009 (ip), vehicle: saline.
Setting [2] is: dose: 100.0 mg/kg/injection, schedule: Q04DX003 (ip), vehicle: Klucel (hydroxypropylcellulose) (HPC).
Setting [3] is: dose: 200.0 mg/kg/injection, schedule: Q04DX003 (ip), vehicle: Klucel (hydroxypropylcellulose) (HPC).

Take `O=C(CC(NC(=O)OCc1ccccc1)c1nn[nH]n1)OCc1ccccc1` (centres undefined): the T/C (dose: 100.0 mg/kg/injection, schedule: Q01DX009 (ip), vehicle: saline with Tween-80) is 101 % of control; the T/C (dose: 200.0 mg/kg/injection, schedule: Q01DX009 (ip), vehicle: saline with Tween-80) is 103 % of control; the T/C (dose: 400.0 mg/kg/injection, schedule: Q01DX009 (ip), vehicle: saline with Tween-80) is 90 % of control.

Turning to `CC(=O)N(C)N=O`, the T/C was 115 % of control (dose: 10.0 mg/kg/injection, schedule: Q01DX001 (ip), vehicle: saline); 115 % of control (dose: 20.0 mg/kg/injection, schedule: Q01DX001 (ip), vehicle: saline); 115 % of control (dose: 30.0 mg/kg/injection, schedule: Q01DX001 (ip), vehicle: saline); 114 % of control (dose: 40.0 mg/kg/injection, schedule: Q01DX001 (ip), vehicle: saline).

`O=C(CCCC(=O)NNC(=S)Nc1ccc2ccccc2c1)NNC(=S)Nc1ccc2ccccc2c1`: the T/C was 98 % of control (dose: 50.0 mg/kg/injection, schedule: Q01DX001 (ip), vehicle: saline); 93 % of control (dose: 100.0 mg/kg/injection, schedule: Q01DX001 (ip), vehicle: saline); 93 % of control (dose: 200.0 mg/kg/injection, schedule: Q01DX001 (ip), vehicle: saline); 90 % of control (dose: 400.0 mg/kg/injection, schedule: Q01DX001 (ip), vehicle: saline).

`COC(=O)C1C(O)C(C)C(O)C(C)C=C(C)C2=C3C(=C(C)C(=O)c4c(O)c(c(C)c(OC(C)=O)c43)NC(=O)C(C)=C/C=C\C(C)C(O)C(C)C1O)OCO2` (centres undefined): the T/C is, setting by setting: under setting [1], 105 % of control; (dose: 40.0 mg/kg/injection, schedule: Q01DX009 (ip), vehicle: saline) 100 % of control; (dose: 80.0 mg/kg/injection, schedule: Q01DX009 (ip), vehicle: saline) 102 % of control; (dose: 100.0 mg/kg/injection, schedule: Q04DX002 (ip), vehicle: Klucel (hydroxypropylcellulose) (HPC)) 96 % of control; (dose: 160.0 mg/kg/injection, schedule: Q01DX009 (ip), vehicle: saline) 107 % of control; (dose: 200.0 mg/kg/injection, schedule: Q04DX002 (ip), vehicle: Klucel (hydroxypropylcellulose) (HPC)) 90 % of control.

For the compound `CCOC(=O)/C(C#N)=C(\C)CCc1ccccc1`, the T/C is, setting by setting: (dose: 75.0 mg/kg/injection, schedule: Q01DX001 (ip), vehicle: saline) 104 % of control; (dose: 150.0 mg/kg/injection, schedule: Q01DX001 (ip), vehicle: saline) 101 % of control; (dose: 300.0 mg/kg/injection, schedule: Q01DX001 (ip), vehicle: saline) 101 % of control.

As to `Nc1nc([Se])c2ncn(C3OC(CO)C(O)C3O)c2n1` (centres undefined), the T/C (dose: 10.0 mg/kg/injection, schedule: Q01DX009 (ip), vehicle: saline) is 179 % of control; the T/C (dose: 12.5 mg/kg/injection, schedule: Q01DX009 (ip), vehicle: saline) was 208 % of control and 213 % of control; the T/C under setting [1] was 182 % of control; the T/C (dose: 25.0 mg/kg/injection, schedule: Q01DX009 (ip), vehicle: saline) is 201 % of control and 229 % of control; the T/C (dose: 50.0 mg/kg/injection, schedule: Q01DX009 (ip), vehicle: saline) is 91 % of control.

Consider `O=C1C(=O)c2ccccc2C=C1C1CCCCC1`, for which the T/C reads like this: (dose: 50.0 mg/kg/injection, schedule: Q01DX001 (ip), vehicle: carboxymethylcellulose (CMC)) 97 % of control; (dose: 100.0 mg/kg/injection, schedule: Q01DX001 (ip), vehicle: carboxymethylcellulose (CMC)) 114 % of control; (dose: 200.0 mg/kg/injection, schedule: Q01DX001 (ip), vehicle: carboxymethylcellulose (CMC)) 97 % of control; (dose: 400.0 mg/kg/injection, schedule: Q01DX001 (ip), vehicle: carboxymethylcellulose (CMC)) 107 % of control.

On to `NNC(=O)Cc1ccc(Cl)c2ccccc12`, for which the T/C runs as follows: under setting [2], 104 % of control; under setting [3], 91 % of control.

Consider `Cc1c[n+]([O-])cc(C)c1N=Nc1ccc(N(C)C)cc1`, for which the T/C (dose: 100.0 mg/kg/injection, schedule: Q04DX003 (ip), vehicle: saline with Tween-80) is 103 % of control and the T/C (dose: 200.0 mg/kg/injection, schedule: Q04DX003 (ip), vehicle: saline with Tween-80) is 96 % of control.

Regarding `CCCCCCCCCCCCCCCCCCNC(=O)Nc1cccc(C)c1C`, the T/C (dose: 100.0 mg/kg/injection, schedule: Q01DX009 (ip), vehicle: Klucel (hydroxypropylcellulose) (HPC)) was 92 % of control; the T/C under setting [2] was 87 % of control; the T/C (dose: 200.0 mg/kg/injection, schedule: Q01DX009 (ip), vehicle: Klucel (hydroxypropylcellulose) (HPC)) is 89 % of control; the T/C under setting [3] is 92 % of control; the T/C (dose: 400.0 mg/kg/injection, schedule: Q01DX009 (ip), vehicle: Klucel (hydroxypropylcellulose) (HPC)) is 94 % of control; the T/C (dose: 400.0 mg/kg/injection, schedule: Q04DX003 (ip), vehicle: Klucel (hydroxypropylcellulose) (HPC)) was 88 % of control.
